Results as given in patent US20210254272A1, “TEXTILES HAVING ANTIMICROBIAL PROPERTIES” (Livinguard AG, priority 2015, published 2021).

Assay: Leaching test: 100 g fabric soaked in 10 liters stagnant distilled water, 3 days (72 hours)
Assay type: physicochemical
Settings: for Leaching of active ingredients: exhaust 80° C. 60 min, cured 180° C. 2 min, post wash
In short: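 Test and control fabrics were soaked together in a closed jar. Leached substances in the water were then determined by standard analytical methods.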

CCCCCCCCCCCCCCCCCC[N+](C)(C)CCC[Si](OC)(OC)OC [Organosilane, dimethyloctadecyl[3-(trimethoxysilyl)propyl] ammonium chloride]
Leaching of active ingredients (in ppm) (0.2% each in mixture (o.w.f), exhaust 80° C., 60 min, curing 180° C., 2 min, unwashed): 7 ppm | Leaching of active ingredients (in ppm) (0.5% each in mixture (o.w.f), exhaust 80° C., 60 min, curing 180° C., 2 min, unwashed): 9 ppm | Leaching of active ingredients (in ppm) (1.0% each in mixture (o.w.f), exhaust 80° C., 60 min, curing 180° C., 2 min, unwashed): 17 ppm | Leeching in ppm (Exhaust + Wash + pad + Wash, exhaust 0.1% o.w.f. each in mixture, 1 gm/liter pad): 0.1 ppm | Leeching in ppm (Exhaust + Wash + pad + Wash, exhaust 0.1% o.w.f. each in mixture, 5 gm/liter pad): 0.2 ppm | Leeching in ppm (Exhaust + Wash + pad + Wash, exhaust 0.1% o.w.f. each in mixture, 10 gm/liter pad): 0.4 ppm | Leeching in ppm (Exhaust + Wash + pad + Wash, exhaust 0.25% o.w.f. each in mixture, 1 gm/liter pad): 1 ppm | Leeching in ppm (Exhaust + Wash + pad + Wash, exhaust 0.25% o.w.f. each in mixture, 5 gm/liter pad): 2 ppm | Leeching in ppm (Exhaust + Wash + pad + Wash, exhaust 0.25% o.w.f. each in mixture, 10 gm/liter pad): 5 ppm | Leeching in ppm (Exhaust + Wash + pad + Wash, exhaust 0.5 (% o.w.f) each in mixture, 1 gm/liter pad): 3 ppm | Leeching in ppm (Exhaust + Wash + pad + Wash, exhaust 0.5 (% o.w.f) each in mixture, 5 gm/liter pad): 7 ppm | Leeching in ppm (Exhaust + Wash + pad + Wash, exhaust 0.5 (% o.w.f) each in mixture, 10 gm/liter pad): 9 ppm | Leeching in ppm (Exhaust + Wash + pad + Wash, exhaust 1.0% o.w.f. each in mixture, 1 gm/liter pad): 9 ppm | Leeching in ppm (Exhaust + Wash + pad + Wash, exhaust 1.0% o.w.f. each in mixture, 5 gm/liter pad): 10 ppm | Leeching in ppm (Exhaust + Wash + pad + Wash, exhaust 1.0% o.w.f. each in mixture, 10 gm/liter pad): 15 ppm | Leeching in ppm (Exhaust + pad + Wash, exhaust 0.1% o.w.f. each in mixture, 1 gm/liter pad): 143 ppm | Leeching in ppm (Exhaust + pad + Wash, exhaust 0.1% o.w.f. each in mixture, 5 gm/liter pad): 238 ppm | Leeching in ppm (Exhaust + pad + Wash, exhaust 0.1% o.w.f. each in mixture, 10 gm/liter pad): 249 ppm | Leeching in ppm (Exhaust + pad + Wash, exhaust 0.25% o.w.f. each in mixture, 1 gm/liter pad): 265 ppm | Leeching in ppm (Exhaust + pad + Wash, exhaust 0.25% o.w.f. each in mixture, 5 gm/liter pad): 249 ppm | Leeching in ppm (Exhaust + pad + Wash, exhaust 0.25% o.w.f. each in mixture, 10 gm/liter pad): 523 ppm | Leeching in ppm (Exhaust + pad + Wash, exhaust 0.5 (% o.w.f) each in mixture, 1 gm/liter pad): 432 ppm | Leeching in ppm (Exhaust + pad + Wash, exhaust 0.5 (% o.w.f) each in mixture, 5 gm/liter pad): 587 ppm | Leeching in ppm (Exhaust + pad + Wash, exhaust 0.5 (% o.w.f) each in mixture, 10 gm/liter pad): 637 ppm | Leeching in ppm (Exhaust + pad + Wash, exhaust 1.0% o.w.f. each in mixture, 1 gm/liter pad): 536 ppm | Leeching in ppm (Exhaust + pad + Wash, exhaust 1.0% o.w.f. each in mixture, 5 gm/liter pad): 657 ppm | Leeching in ppm (Exhaust + pad + Wash, exhaust 1.0% o.w.f. each in mixture, 10 gm/liter pad): 856 ppm | Leeching in ppm (Exhaust + pad, exhaust 0.1% o.w.f. each in mixture, 1 gm/liter pad): 198 ppm | Leeching in ppm (Exhaust + pad, exhaust 0.1% o.w.f. each in mixture, 5 gm/liter pad): 275 ppm | Leeching in ppm (Exhaust + pad, exhaust 0.1% o.w.f. each in mixture, 10 gm/liter pad): 374 ppm | Leeching in ppm (Exhaust + pad, exhaust 0.25% o.w.f. each in mixture, 1 gm/liter pad): 315 ppm | Leeching in ppm (Exhaust + pad, exhaust 0.25% o.w.f. each in mixture, 5 gm/liter pad): 353 ppm | Leeching in ppm (Exhaust + pad, exhaust 0.25% o.w.f. each in mixture, 10 gm/liter pad): 356 ppm | Leeching in ppm (Exhaust + pad, exhaust 0.5 (% o.w.f) each in mixture, 1 gm/liter pad): 347 ppm | Leeching in ppm (Exhaust + pad, exhaust 0.5 (% o.w.f) each in mixture, 5 gm/liter pad): 462 ppm | Leeching in ppm (Exhaust + pad, exhaust 0.5 (% o.w.f) each in mixture, 10 gm/liter pad): 823 ppm | Leeching in ppm (Exhaust + pad, exhaust 1.0% o.w.f. each in mixture, 1 gm/liter pad): 584 ppm | Leeching in ppm (Exhaust + pad, exhaust 1.0% o.w.f. each in mixture, 5 gm/liter pad): 782 ppm | Leeching in ppm (Exhaust + pad, exhaust 1.0% o.w.f. each in mixture, 10 gm/liter pad): 1243 ppm | Leeching in ppm (Exhaust +Wash + pad, exhaust 0.1% o.w.f. each in mixture, 1 gm/liter pad): 87 ppm | Leeching in ppm (Exhaust +Wash + pad, exhaust 0.1% o.w.f. each in mixture, 5 gm/liter pad): 158 ppm | Leeching in ppm (Exhaust +Wash + pad, exhaust 0.1% o.w.f. each in mixture, 10 gm/liter pad): 231 ppm | Leeching in ppm (Exhaust +Wash + pad, exhaust 0.25% o.w.f. each in mixture, 1 gm/liter pad): 186 ppm | Leeching in ppm (Exhaust +Wash + pad, exhaust 0.25% o.w.f. each in mixture, 5 gm/liter pad): 214 ppm | Leeching in ppm (Exhaust +Wash + pad, exhaust 0.25% o.w.f. each in mixture, 10 gm/liter pad): 327 ppm | Leeching in ppm (Exhaust +Wash + pad, exhaust 0.5 (% o.w.f) each in mixture, 1 gm/liter pad): 375 ppm | Leeching in ppm (Exhaust +Wash + pad, exhaust 0.5 (% o.w.f) each in mixture, 5 gm/liter pad): 432 ppm | Leeching in ppm (Exhaust +Wash + pad, exhaust 0.5 (% o.w.f) each in mixture, 10 gm/liter pad): 564 ppm | Leeching in ppm (Exhaust +Wash + pad, exhaust 1.0% o.w.f. each in mixture, 1 gm/liter pad): 495 ppm | Leeching in ppm (Exhaust +Wash + pad, exhaust 1.0% o.w.f. each in mixture, 5 gm/liter pad): 534 ppm | Leeching in ppm (Exhaust +Wash + pad, exhaust 1.0% o.w.f. each in mixture, 10 gm/liter pad): 645 ppm | Leaching of active ingredients (in ppm) (exhaust 60° C., solution dosage 1% o.w.f, process time 60 min): 23 ppm | Leaching of active ingredients (in ppm) (exhaust 60° C., solution dosage 1% o.w.f, process time 90 min): 14 ppm | Leaching of active ingredients (in ppm) (exhaust 60° C., solution dosage 1% o.w.f, process time 120 min): 14 ppm | Leaching of active ingredients (in ppm) (exhaust 60° C., solution dosage 1% o.w.f, process time 180 min): 12 ppm | Leaching of active ingredients (in ppm) (exhaust 60° C., solution dosage 1% o.w.f, process time 240 min): 14 ppm | Leaching of active ingredients (mixture 0.2% o.w.f. each): 0.2 ppm | Leaching of active ingredients (mixture 0.5% o.w.f. each): 0.3 ppm | Leaching of active ingredients (mixture 1% o.w.f. each): 0.7 ppm | Leaching of active ingredients (in ppm) (exhaust 80° C., 1% o.w.f, 60 min, curing 170° C., curing dwell time 0.5 min): 29 ppm | Leaching of active ingredients (in ppm) (exhaust 80° C., 1% o.w.f, 60 min, curing 170° C., curing dwell time 1.0 min): 25 ppm | Leaching of active ingredients (in ppm) (exhaust 80° C., 1% o.w.f, 60 min, curing 170° C., curing dwell time 1.5 min): 22 ppm | Leaching of active ingredients (in ppm) (exhaust 80° C., 1% o.w.f, 60 min, curing 170° C., curing dwell time 2.0 min): 13 ppm | Leaching of active ingredients (in ppm) (exhaust 80° C., 1% o.w.f, 60 min, curing 170° C., curing dwell time 2.5 min): 17 ppm | Leaching of active ingredients (in ppm) (exhaust 80° C., 1% o.w.f, 60 min, curing 170° C., curing dwell time 3.0 min): 17 ppm | Leaching of active ingredients (in ppm) (exhaust 80° C., 1% o.w.f, 60 min, curing 180° C., curing dwell time 0.5 min): 23 ppm | Leaching of active ingredients (in ppm) (exhaust 80° C., 1% o.w.f, 60 min, curing 180° C., curing dwell time 1.0 min): 13 ppm | Leaching of active ingredients (in ppm) (exhaust 80° C., 1% o.w.f, 60 min, curing 180° C., curing dwell time 1.5 min): 14 ppm | Leaching of active ingredients (in ppm) (exhaust 80° C., 1% o.w.f, 60 min, curing 180° C., curing dwell time 2.0 min): 2 ppm | Leaching of active ingredients (in ppm) (exhaust 80° C., 1% o.w.f, 60 min, curing 180° C., curing dwell time 2.5 min): 12 ppm | Leaching of active ingredients (in ppm) (exhaust 80° C., 1% o.w.f, 60 min, curing 180° C., curing dwell time 3.0 min): 12 ppm | Leaching of active ingredients (in ppm) (exhaust 80° C., 1% o.w.f, 60 min, curing dwell time at 190° C. (title): 0.5 min): 19 ppm | Leaching of active ingredients (in ppm) (exhaust 80° C., 1% o.w.f, 60 min, curing dwell time at 190° C. (title): 1.0 min): 12 ppm | Leaching of active ingredients (in ppm) (exhaust 80° C., 1% o.w.f, 60 min, curing dwell time at 190° C. (title): 1.5 min): 11 ppm | Leaching of active ingredients (in ppm) (exhaust 80° C., 1% o.w.f, 60 min, curing dwell time at 190° C. (title): 2.0 min): 11 ppm | Leaching of active ingredients (in ppm) (exhaust 80° C., 1% o.w.f, 60 min, curing dwell time at 190° C. (title): 2.5 min): 25 ppm | Leaching of active ingredients (in ppm) (exhaust 80° C., 1% o.w.f, 60 min, curing dwell time at 190° C. (title): 3.0 min): 34 ppm
